Experimental data published in patent US5929254A, “1,2-dioxetane derivatives” (Fujirebio Inc., priority 1996, dated 1999).

Experiments:
[1] = Chemiluminescence on addition to tetrabutylammonium fluoride in DMSO, measured with a fluorescence analyzer; assay type: physicochemical; details: tetrabutylammonium fluoride 1.5×10^-1 M, 25° C.
Experimental: 1 ml of a […] dimethylsulfoxide(DMSO) solution of 4-(4-acetyl-3-hydroxyphenyl)-3,3-(bicyclo[3.3.1]nonan-3,7-diyl)-4-methoxy- 1,2-dioxethane (Compound [10]) synthesized in Example 2 was added to 2 ml of 1.5×10^-1 M DMSO solution of tetrabutylammonium fluoride at 25° C.
The luminescence at the moment of the addition of the compound [10] to the DMSO solution of tetrabutylammonium fluoride was measured with a fluorescence analyzer.
1 ml of a 2.94×10^-3 M dimethylsulfoxide (DMSO) solution of 3,3-(bicyclo[3.3.1]nonan-3,7-diyl)-4-(3-hydroxyphenyl)-4-methoxy-1,2-dioxetane (Comparative Compound) was added to 2 ml of 1.5×10^-1 M DMSO solution of tetrabutylammonium fluoride at 25° C.
The luminescence at the moment of the addition of the comparative compound to the DMSO solution of tetrabutylammonium fluoride was measured with a fluorescence analyzer in the same manner as in Example 1.

[2] = Chemiluminescence on addition to cesium hydroxide in methanol or aqueous methanol, measured with a fluorescence analyzer; assay type: physicochemical; details: 25° C.
Experimental: 1 ml of a 3.12×10^-3 M methanol solution of 4-(4-acetyl-3-hydroxyphenyl)-3,3-(bicyclo[3.3.1]nonan-3,7-diyl)-4-methoxy- 1,2-dioxethane (Compound [10]) synthesized in Example 2 was added to 2 ml of a 1.5×10^-1 M methanol solution of cesium hydroxide at 25° C.
The luminescence at the moment of the addition of the compound [10] to the methanol solution of cesium hydroxide was measured with a fluorescence analyzer in the same manner as in Test Example 1.
The measurement of the luminescence of the compound [10] in Test Example 2 was repeated in the same manner as in Test Example 2 except that the methanol used as the solvent for cesium hydroxide employed in Test Example 2 was replaced by an aqueous solution of methanol (water: 50%) without changing the concentration of cesium in the diluted methanol solution.
Thus, the luminescence at the moment of the addition of the compound [10] to the diluted methanol solution of cesium hydroxide was measured with a fluorescence analyzer in the same manner as in Test Example 1.
The measurement of the luminescence of the compound [10] in Test Example 2 was repeated in the same manner as in Test Example 2 except that the methanol used as the solvent for cesium hydroxide employed in Test Example 2 was replaced by an aqueous solution of methanol (water: 97%) without changing the concentration of cesium in the diluted methanol solution.
1 ml of a 3.12×10^-3 M methanol solution of 3,3-(bicyclo[3.3.1]nonan-3,7-diyl)-4-(3-hydroxyphenyl)-4-methoxy-1,2-dioxetane (Comparative Compound) was added to 2 ml of a 1.5×10^-1 M methanol solution of cesium hydroxide at 25° C.
It was tried to measure the luminescence at the moment of the addition of the comparative compound to the methanol solution of cesium hydroxide with a fluorescence analyzer in the same manner as in Test Example 1.
The measurement of he luminescence of the comparative compound in Comparative Test Example 2 was repeated in the same manner as in Comparative Test Example 2 except that the methanol used as the solvent for cesium hydroxide employed in Comparative Test Example 2 was replaced by an aqueous solution of methanol (water: 50%) without changing the concentration of cesium in the diluted methanol solution.
Thus, the luminescence at the moment of the addition of the comparative compound to the diluted methanol solution of cesium hydroxide was measured with a fluorescence analyzer in the same manner as in Test Example 1.
The measurement of the luminescence of the comparative compound in Comparative Test Example 2 was repeated in the same manner as in Comparative Test Example 2 except that the methanol used as the solvent for cesium hydroxide employed in Comparative Test Example 2 was replaced by an aqueous solution of methanol (water: 97%) without changing the concentration of cesium in the diluted methanol solution.

[3] = Aqueous solution of methanol (water: 50%), cesium hydroxide
[4] = Aqueous solution of methanol (water: 97%), cesium hydroxide
[5] = Methanol, cesium hydroxide 1.5×10^-1 M, compound 3.12×10^-3 M
[6] = methanol solution of cesium hydroxide, in words

Row | SMILES | Half-life (sec) of Luminescence [1] | Luminescence Quantum Efficiency [1] | λmax (nm) [1] | Half-life (sec) of Luminescence [2, 3] | Luminescence Quantum Efficiency [2, 3] | λmax (nm) [2, 3] | Half-life (sec) of Luminescence [2, 4] | Luminescence Quantum Efficiency [2, 4] | λmax (nm) [2, 4] | Half-life (sec) of Luminescence [2, 5] | Luminescence Quantum Efficiency [2, 5] | λmax (nm) [2, 5] | half-life of the luminescence [2, 6] | intensity of the luminescence [2, 6]
1 | COC1(c2ccc(C(C)=O)c(O)c2)OOC12C1CC3CC(C1)CC2C3 (centres unmarked) [Compound [10], 4-(4-acetyl-3-hydroxyphenyl)-3,3-(bicyclo[3.3.1]nonan-3,7-diyl)-4-methoxy-1,2-dioxethane] | 23000 s | 0.13 | 486 nm | 29000 s | 0.023 | 496 nm | 8200 s | 0.0064 | 496 nm | 120000 s | 0.030 | 493 nm |  | 
2 | COC1(c2cccc(O)c2)OOC12C1CC3CC(C1)CC2C3 (centres unmarked) [Comparative Compound, 3,3-(bicyclo[3.3.1]nonan-3,7-diyl)-4-(3-hydroxyphenyl)-4-methoxy-1,2-dioxetane, reference compound] | 5.1 s | 0.22 | 465 nm | 452 s | 3.9 × 10^-5 | 472 nm | 173 s | 6.7 × 10^-6 | 474 nm |  |  |  | extremely long | extremely small
